In BindingDB's records for patent WO2022098806 (MERCK SHARP & DOHME LLC, 2022):
“And” between values parts separate entries of the source, which are not always exact repeats. Equal entries are not always repeated.

Molecular target: Mitogen-activated protein kinase kinase kinase kinase 1 (Homo sapiens, UniProt Q92918)
Test: HPK1-SLP76 TR-FRET ASSAY

Mitogen-activated protein kinase kinase kinase kinase 1, sequence (Q92918 whole entry): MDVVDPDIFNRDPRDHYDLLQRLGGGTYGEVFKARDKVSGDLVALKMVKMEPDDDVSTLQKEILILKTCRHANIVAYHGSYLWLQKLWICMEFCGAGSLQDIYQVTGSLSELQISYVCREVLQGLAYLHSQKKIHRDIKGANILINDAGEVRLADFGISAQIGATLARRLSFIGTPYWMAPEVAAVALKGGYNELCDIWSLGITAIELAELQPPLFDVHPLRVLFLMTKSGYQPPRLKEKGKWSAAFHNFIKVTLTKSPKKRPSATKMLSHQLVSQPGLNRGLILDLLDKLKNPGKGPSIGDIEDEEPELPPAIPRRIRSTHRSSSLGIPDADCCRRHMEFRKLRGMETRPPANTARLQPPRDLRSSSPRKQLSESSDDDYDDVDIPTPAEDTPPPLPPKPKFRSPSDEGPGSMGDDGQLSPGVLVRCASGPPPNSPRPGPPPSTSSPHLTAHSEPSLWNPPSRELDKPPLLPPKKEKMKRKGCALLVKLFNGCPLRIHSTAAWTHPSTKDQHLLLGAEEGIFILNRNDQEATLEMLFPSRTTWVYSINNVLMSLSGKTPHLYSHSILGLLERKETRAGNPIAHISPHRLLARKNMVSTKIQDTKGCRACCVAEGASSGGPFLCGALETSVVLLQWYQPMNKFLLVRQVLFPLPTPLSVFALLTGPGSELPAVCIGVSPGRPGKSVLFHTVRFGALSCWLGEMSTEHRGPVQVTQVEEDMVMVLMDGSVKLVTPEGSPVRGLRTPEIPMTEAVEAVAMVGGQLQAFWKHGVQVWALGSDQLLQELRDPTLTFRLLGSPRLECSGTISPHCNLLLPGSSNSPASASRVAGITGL

Compound	IC50
COc1cc2c(cc1Nc1ncc3ccc(-c4cnn(CC(C)O)c4)cc3n1)CN(C)CC2 (stereo not given) [WO2022098806, Compound 1-102]	22 nM
COc1cc2c(cc1Nc1ncc3ccc(-c4cccc(S(=O)(=O)N5CCOCC5)c4)cc3n1)CNCC2 [WO2022098806, Compound 1-77]	25 nM
COc1cc2c(cc1Nc1ncc3c(N)c(F)c(-c4cnc5c(c4C)NCCO5)cc3n1)CN(C(C)C)CC2 [WO2022098806, Compound 2-72]	0.12 nM
Cc1c(-c2cc3nc(Nc4ccc(S(C)(=O)=O)cc4)ncc3c(N)c2F)cnc2c1NCCO2 [WO2022098806, Compound 2-17]	0.09 nM
COc1cc([C@H](C)S(C)(=O)=O)ccc1Nc1ncc2c(N)c(F)c(-c3cnc4c(c3C)NCCO4)cc2n1 [WO2022098806, Compound 2-55]	1.62 nM
Cc1c(-c2cc3nc(Nc4ccc([C@H](C)S(C)(=O)=O)cc4)ncc3cc2F)cnc2c1NCCO2 [WO2022098806, Compound 1-124]	0.04 nM
Cc1c(-c2c(F)c(N)c3cnc(Nc4ccc5c(c4)CN(C)CC54CC4)nc3c2Cl)cnc2c1NCCO2 [WO2022098806, Compound 2-108]	0.01 nM
COc1cc2c(cc1Nc1ncc3ccc(-c4cncc5cccnc45)cc3n1)CN(C)CC2 [WO2022098806, Compound 1-24]	10 nM
CNC(=O)C1(c2ccc(Nc3ncc4c(N)c(F)c(-c5cnc6c(c5C)NCCO6)cc4n3)cc2)CCCC1 [WO2022098806, Compound 2-83]	0.04 nM
Cc1c(-c2cc3nc(Nc4ccc(CS(C)(=O)=O)nc4)ncc3c(N)c2F)cnc2c1NCCO2 [WO2022098806, Compound 2-84]	0.02 nM
CC(=O)N[C@H]1CCc2cc(Nc3ncc4c(N)c(F)c(-c5cnc6c(c5C)NCCO6)cc4n3)ccc21 [WO2022098806, Compound 2-11]	0.08 nM
CC(=O)Nc1ccc(Nc2ncc3c(N)c(F)c(-c4cnc5c(c4C)NCCO5)cc3n2)cc1 [WO2022098806, Compound 2-15]	0.07 nM
COc1cc2c(cc1Nc1ncc3ccc(-c4cccc(S(=O)(=O)N5CCCCC5)c4)cc3n1)CNCC2 [WO2022098806, Compound 1-82]	15 nM
COc1ncccc1Nc1ncc2c(N)c(F)c(-c3cnc4c(c3C)NCCO4)cc2n1 [WO2022098806, Compound 2-27]	0.12 nM
COc1cc2c(cc1Nc1ncc3ccc(-c4cncc(N5CCOCC5)c4)cc3n1)CNCC2 [WO2022098806, Compound 1-42]	39 nM
Cc1c(-c2cc3nc(Nc4ccc([C@@H]5CCN(C)C5=O)cc4)ncc3cc2F)cnc2c1NCCO2 [WO2022098806, Compound 1-125]	0.06 nM
CC(=O)NCc1ccc(Nc2ncc3c(N)c(F)c(-c4cnc5c(c4C)NCCO5)cc3n2)cc1 [WO2022098806, Compound 2-30]	0.08 nM
Cc1c(-c2cc3nc(Nc4ccc([C@@H](C)S(C)(=O)=O)cc4)ncc3cc2F)cnc2c1NCCO2 [WO2022098806, Compound 1-126]	0.68 nM
COc1cc([C@@H](C)S(C)(=O)=O)ccc1Nc1ncc2c(N)c(F)c(-c3cnc4c(c3C)NCCO4)cc2n1 [WO2022098806, Compound 2-56]	0.1 nM
CNC(=O)[C@H]1CCc2cc(Nc3ncc4cc(F)c(-c5cnc6c(c5C)NCCO6)cc4n3)ccc21 [WO2022098806, Compound 1-119]	1.17 nM
Cc1c(-c2cc3nc(Nc4ccc(CS(C)(=O)=O)cc4)ncc3cc2F)cnc2c1NCCO2 [WO2022098806, Compound 1-115]	0.05 nM
Cc1c(-c2c(F)c(N)c3cnc(Nc4ccc(S(C)(=O)=O)cc4)nc3c2Cl)cnc2c1NCCO2 [WO2022098806, Compound 2-103]	0.09 nM
Cc1c(-c2cc3nc(Nc4ccc([C@H](C)S(C)(=O)=O)cc4)ncc3c(N)c2F)cnc2c1NCCO2 [WO2022098806, Compound 2-62]	0.06 nM

Now from value to compound:

IC50	Compound
73 nM	COc1cc2c(cc1Nc1ncc3ccc(NCC4CCS(=O)(=O)C4)cc3n1)CN(C)CC2 (stereo not given) [WO2022098806, Compound 3-37]
2.81 nM	COc1cc2c(cc1Nc1ncc3c(N)cc(Nc4cc(CO)ccn4)cc3n1)CN(C)CC2 [WO2022098806, Compound 3-80]
0.19 nM	Cc1c(-c2cc3nc(Nc4ccc(CS(=O)(=O)CC(F)(F)F)cc4)ncc3c(N)c2F)cnc2c1NCCO2 [WO2022098806, Compound 2-149]
97 nM and 98 nM	COc1cc2c(cc1Nc1ncc3ccc(NC4CCN(C)C4=O)cc3n1)CN(C)CC2 (stereo not given) [WO2022098806, Compound 3-49]
391 nM	COc1cc2c(cc1Nc1ncc3ccc(N4CC5(CCOC5)OC4=O)cc3n1)CN(C)CC2 (stereo not given) [WO2022098806, Compound 3-3]
0.17 nM	CC[C@H]1COC(=O)N1c1cc(N)c2cnc(Nc3cc4c(cc3OC)CCN(C)C4)nc2c1 [WO2022098806, Compound 3-16]
15 nM	COc1cc2c(cc1Nc1ncc3ccc(OCc4ccc(N5CCNCC5)nc4)cc3n1)CN(C)CC2 [WO2022098806, Compound 4-1]
0.05 nM	Cc1c(N)cncc1-c1cc2nc(Nc3ccc4c(c3)CN(C)CC43CC3)ncc2c(N)c1F [WO2022098806, Compound 2-153]
0.05 nM	Cc1c(-c2cc3nc(Nc4ccc5c(c4)CN(C(C)C)CC5)ncc3c(N)c2F)cnc2c1NCC(C)O2 (stereo not given) [WO2022098806, Compound 2-145]
0.1 nM	COc1cc(S(C)(=O)=O)ccc1Nc1ncc2c(N)cc(N3C(=O)OC[C@H]3C)cc2n1 [WO2022098806, Compound 3-76]
0.06 nM	Cc1c(-c2cc3nc(Nc4ccc5c(c4)CN(C)CC5(C)C)ncc3c(N)c2F)cnc2c1NCCO2 [WO2022098806, Compound 2-150]
0.06 nM	COc1cc2c(cc1Nc1ncc3c(N)c(F)c(-c4cnc5c(c4C)NCCO5)c(Cl)c3n1)CN(C)CC21CC1 [WO2022098806, Compound 2-169]
0.08 nM	Cc1c(-c2cc3nc(Nc4ccc([C@H]5CCN(C)C5=O)cc4)ncc3c(N)c2F)cnc2c1NCCO2 [WO2022098806, Compound 2-147]
0.1 nM	COc1cc(CS(=O)(=O)C(C)C)ccc1Nc1ncc2c(N)c(F)c(-c3cnc4c(c3C)NCC(C)(C)O4)cc2n1 [WO2022098806, Compound 2-168]
0.1 nM	Cc1c(-c2cc3nc(Nc4ccc(CS(=O)(=O)C5CC5)cc4)ncc3c(N)c2F)cnc2c1NCCO2 [WO2022098806, Compound 2-136]
23 nM	COc1cc2c(cc1Nc1ncc3ccc(Nc4cccc(C#N)n4)cc3n1)CN(C)CC2 [WO2022098806, Compound 3-27]
82 nM	COc1cc2c(cc1Nc1ncc3ccc(N4CC(CN)OC4=O)cc3n1)CN(C)CC2 (stereo not given) [WO2022098806, Compound 3-11]
100 nM	Cc1c(-c2cc3nc(Nc4cccc5c4CC(C)(C)N(C)C5)ncc3c(N)c2F)cnc2c1NCCO2 [WO2022098806, Compound 2-127]
3.24 nM	CC[C@@H]1COC(=O)N1c1cc(N)c2cnc(Nc3cc4c(cc3OC)CCN(C)C4)nc2c1 [WO2022098806, Compound 3-15]
0.24 nM	Cc1c(-c2c(F)c(N)c3cnc(Nc4ccc(N5CCOC5=O)cc4)nc3c2Cl)cnc2c1NCCO2 [WO2022098806, Compound 2-159]
94 nM	CNCC1CN(c2ccc3cnc(Nc4cc5c(cc4OC)CCN(C)C5)nc3c2)C(=O)O1 (stereo not given) [WO2022098806, Compound 3-12]
0.13 nM	Cc1c(-c2c(F)c(N)c3cnc(Nc4ccc(CS(C)(=O)=O)cc4F)nc3c2Cl)cnc2c1NCCO2 [WO2022098806, Compound 2-135]
